Experiments:
[1] = system: twelve food-borne and clinical bacterial strains; format: cell-based; details: ratio of MIC values, Table 2
Description: Initial activity experiments were carried out with twelve strains from seven bacterial species representing common laboratory strains and clinical strains derived from both food-borne and nosocomial infections (Table 1). Stock cultures were stored at -80°C in 4% (w/v) glycerol, 0.5% (w/v) glucose, 2% (w/v) skimmed milk powder and 3% (w/v) tryptone soy powder. All experiments were carried out with bacteria incubated for one night (i.e. approximately 18 hours) at 37°C. Experiments were performed in cation-adjusted Mueller Hinton II broth (MHB) (Becton Dickinson 212322) adjusted to pH 7.4 or Tryptone Soy Broth (TSB) (Oxoid CM0129) for the ATP leakage assays. Brain Heart Infusion (BHI) (CM1135) with agar (VWR 20768.292) 1.5% as gelling agent was used throughout for colony plating.
The Minimum Inhibitory Concentration (MIC) of the chimeras was determined against the spectrum of bacteria using the microdilution method according to guidelines of the Clinical and Laboratory Standards Institute (CLSI). Chimera 1:2 serial dilutions were prepared from 1,024 μg/mL stock solutions to give a final range of 512-0.5 μg/mL in the wells. This corresponds to a final range of 144 to 0.14 μM for the heaviest chimera (i.e. chimera 4c) and of 282 to 0.27 μM for the lightest chimera (i.e. chimera 4a). Colonies grown overnight (i.e. approximately 18 hours) on BHI agar were suspended in 0.9% saline to give a turbidity of 0.13 at OD546 (approximately 1 × 10^8 CFU/mL), and then diluted in MHB pH 7.4 to a final concentration of 5 × 10^5 CFU/mL in each well. Following CLSI guidelines the media for testing of Listeria monocytogenes strains were supplemented with 2.5% lysed horse blood. Polypropylene plates (Nunc 442587) were used to minimize peptide binding and incubation time was 18-20 hours at 37°C. MIC was determined in a minimum of two technical replicates as the lowest concentration of the peptide analogue where no visible growth was found. The Minimum Bactericidal Concentration (MBC) was determined by plating 10 μL of the suspension from the first three wells without growth on BHI agar and incubating these for 24 hours at 37°C. MBC was the lowest concentration at which a 99.9% reduction in CFU/mL was observed. Activity is expressed in μmol/L to enable a direct comparison of analogues with different length (= size).

S. aureus = assay: ATP leakage bioluminescence assay; format: cell-based, Staphylococcus aureus; details: 1000 μg/mL chimera
Description: (§1) Pore formation as caused by peptide addition was determined by measuring ATP leakage from the bacterial cell using a bioluminescence assay. The assay was used to estimate differences between sub-typical chimeras 1, 2 and 3 on S. aureus and S. marcescens and to evaluate the effect of chain length of mixed type chimeras 4a, 4b and 4c on S. aureus. In brief, bacteria were grown in TSB at 37°C for 24 hours and then re-inoculated in TSB at 37°C for 6-8 hours until an absorbance at 546 nm of 2.5 for S. aureus and 2.0 for S. marcescens and then harvested (10 min at 2,000 × g). The bacteria were grown to a high absorbance since a high concentration of bacteria was necessary in order to get a measurable response in the ATP leakage assay. Cells were washed once in 50 mM potassium phosphate buffer (pH 7.0) and once in 50 mM HEPES buffer (pH 7.0), before the pellet was resuspended in HEPES buffer to an OD546 ~ 10, and then stored on ice. Before chimera addition bacteria were pre-incubated with 0.2% (w/v) glucose to energize the cells. In general a chimera dose of 1000 μg/mL (corresponding to 280-552 μM for all chimeras) was used for all assays; however, for determining dose response curves additional doses of 100 (28-55 μM), 250 (71-137 μM) and 500 (140-276 μM) μg/mL were tested, and only the immediate release was noted. Total ATP and extracellular ATP were determined with a luminometer […]. Intracellular volumes of S. aureus and S. marcescens (0.85 μm^3 and 1.7 μm^3, respectively) were subtracted from the total volume before calculating the extracellular ATP concentration; the intracellular ATP concentration could then be calculated from this and the total ATP. ATP leakage kinetics was determined on a bacterial suspension prepared as above. Samples were taken at time 0, 5, 10, 20, 30 and 60 minutes and viable counts determined. Both the ATP leakage assay and killing kinetics performed under the same assay conditions were performed in two independent experiments.

S. marcescens = assay: ATP leakage bioluminescence assay; format: cell-based, Serratia marcescens; details: 1000 μg/mL chimera
Description: as §1

[2] = design: method as in PMID 18675778; details: unilamellar liposomes mimicking human cell membranes; ref [24]; cited from earlier work

CC(=O)N[C@@H](CCCCN)C(=O)N(CCC(=O)N[C@@H](CCCCN)C(=O)N(CCC(=O)N[C@@H](CCCCN)C(=O)N(CCC(=O)N[C@@H](CCCCN)C(=O)N(CCC(=O)N[C@@H](CCCCN)C(=O)N(CCC(=O)N[C@@H](CCCCN)C(=O)N(CCC(=O)N[C@@H](CCCCN)C(=O)N(CCC(=O)N[C@@H](CCCCN)C(=O)N(CCC(N)=O)[C@@H](C)c1ccccc1)[C@@H](C)c1ccccc1)[C@@H](C)c1ccccc1)[C@@H](C)c1ccccc1)[C@@H](C)c1ccccc1)[C@@H](C)c1ccccc1)[C@@H](C)c1ccccc1)[C@@H](C)c1ccccc1 [Chimera 3]
lower activity compared to chimera 2 against E.coli [1]: 2-7 fold
lower activity compared to chimera 2 against S. aureus and K. pneumoniae [1]: 6-13 fold
ATP leakage (in words) (S. aureus): caused leakage of ATP
ATP leakage (in words) (S. marcescens): caused leakage of ATP
ability to induce calcein leakage [2]: positive response

Source: article PMC3224213, “Bacterial membrane activity of α-peptide/β-peptoid chimeras: Influence of amino acid composition and chain length on the activity against different bacterial strains” (BMC Microbiology, 2011)
